According to patent EP0908457B1, “3-(1,2-benzisothiazol- and isoxazol-5-Y1)-2,4(1H,3H)-pyrimidinedione or thione and 3-(1,2-benzisothiazol- and isoxazol-5-y1)-4(3H)-pyrimidinone or thione herbicidal agents” (BASF AKTIENGESELLSCHAFT, priority 1997, dated 1999):

What was measured:
[1] = test system: Echinochloa oryzoides (Ard.) Fritsch.; assay: Preemergence weed control under flooded paddy conditions, ECHORC (Watergrass (Calif.)); type: in vivo; conditions: flooded paddy, rated three to four weeks after treatment; on herbicidal effect rating, ECHORC: meaning of each grade not given here
Cyperus iria = assay: Preemergence weed control under flooded paddy conditions, CYPIR (Rice Flatsedge); type: in vivo; conditions: flooded paddy, rated three to four weeks after treatment; on herbicidal effect rating, CYPIR: meaning of each grade not given here
[2] = test system: Cyperus serotinus, Rottb.; assay: Preemergence weed control under flooded paddy conditions, CYPSE (Flatsedge); type: in vivo; conditions: rated three to four weeks after treatment; on herbicidal effect rating, CYPSE: meaning of each grade not given here
[3] = test system: Monochoria vaginalis, Presl.; assay: Preemergence weed control under flooded paddy conditions, MOOVA (Monochoria); type: in vivo; conditions: flooded paddy, rated three to four weeks after treatment; on herbicidal effect rating, MOOVA: meaning of each grade not given here
Sagittaria pygmaea, L. = assay: Preemergence weed control under flooded paddy conditions, SAGPY (Arrowhead (Pygmaea)); type: in vivo; conditions: flooded paddy, rated three to four weeks after treatment; on herbicidal effect rating, SAGPY: meaning of each grade not given here
[4] = test system: Oryza sativa, (L.) Tebonnet; assay: Rice tolerance to post-transplant applications under flooded paddy conditions (Example 187), ORYSAT (Rice, Tebonnet); conditions: rated three to four weeks after treatment; on herbicidal effect rating ORYSAT: meaning of each grade not given here
[5] = Rate 0.0320 kg/ha, preemergence
[6] = Rate 0.0620 kg/ha, preemergence
[7] = Rate 0.1250 kg/ha, preemergence
[8] = Rate 0.2500 kg/ha, preemergence
[9] = Rate 0.5000 kg/ha, preemergence
[10] = Rate 0.0320 kg/ha, preemergence weeds
[11] = Rate 0.0620 kg/ha, preemergence weeds
[12] = Rate 0.1250 kg/ha, preemergence weeds
[13] = Rate 0.2500 kg/ha, preemergence weeds

For `Cn1c(C(F)(F)F)cc(=O)n(-c2ccc3snc(COCc4cccc([N+](=O)[O-])c4)c3c2)c1=O` [Example 588, 2,4(1H,3H)-Pyrimidinedione, 1-methyl-3-{3-{[(m-nitrobenzyl)oxy]methyl}-1,2-benzisothiazol-5-yl}-6-(trifluoromethyl)-], the “herbicidal effect rating, ECHORC” value [1, 5] was 4.0, the “herbicidal effect rating, ECHORC” value [1, 6] was 7.0 and the “herbicidal effect rating, ECHORC” value [1, 7] was 9.0. For the same compound, the “herbicidal effect rating, ECHORC” value [1, 8] was 7.0, the “herbicidal effect rating, CYPIR” value (Cyperus iria; [5]) was 0.0 and the “herbicidal effect rating, CYPIR” value (Cyperus iria; [6]) was 2.0. For the same compound, the “herbicidal effect rating, CYPIR” value (Cyperus iria; [7]) was 6.0, the “herbicidal effect rating, CYPIR” value (Cyperus iria; [8]) was 6.0 and the “herbicidal effect rating, CYPSE” value [2, 5] was 0.0. The “herbicidal effect rating, CYPSE” value [2, 6] was 0.0, the “herbicidal effect rating, CYPSE” value [2, 7] was 5.0 and the “herbicidal effect rating, CYPSE” value [2, 8] was 5.0. The “herbicidal effect rating, MOOVA” value [3, 7] was 7.0, the “herbicidal effect rating, MOOVA” value [3, 8] was 8.0 and the “herbicidal effect rating, SAGPY” value (Sagittaria pygmaea, L.; [5]) was 0.0. The “herbicidal effect rating, SAGPY” value (Sagittaria pygmaea, L.; [6]) was 0.0, the “herbicidal effect rating, SAGPY” value (Sagittaria pygmaea, L.; [7]) was 0.0 and the “herbicidal effect rating, SAGPY” value (Sagittaria pygmaea, L.; [8]) was 0.0. The “herbicidal effect rating ORYSAT” value ([4]; Rate 0.0320 kg/ha) was 0.0, the “herbicidal effect rating ORYSAT” value ([4]; Rate 0.0620 kg/ha) was 3.0 and the “herbicidal effect rating ORYSAT” value ([4]; Rate 0.1250 kg/ha) was 3.0. The “herbicidal effect rating ORYSAT” value ([4]; Rate 0.2500 kg/ha) was 3.0.
In the case of `C=Cc1nsc2ccc(-n3c(=O)cc(C(F)(F)F)n(C)c3=O)cc12` [Example 276, 2,4(1H,3H)-Pyrimidinedione, 1-methyl-6-(trifluoromethyl)-3-(3-vinyl-1,2-benzisothiazol-5-yl)-], the “ECHORC herbicidal effect rating” value [1, 5] is reported as 4.0, the “ECHORC herbicidal effect rating” value [1, 6] is reported as 7.7 and the “ECHORC herbicidal effect rating” value [1, 7] is reported as 7.9. For the same compound, the “ECHORC herbicidal effect rating” value [1, 8] was 9.0, the “ECHORC herbicidal effect rating” value [1, 9] was 9.0 and the “CYPIR herbicidal effect rating” value (Cyperus iria; [5]) was 8.0. For the same compound, the “CYPIR herbicidal effect rating” value (Cyperus iria; [6]) was 9.0, the “CYPIR herbicidal effect rating” value (Cyperus iria; [7]) was 9.0 and the “CYPIR herbicidal effect rating” value (Cyperus iria; [8]) was 9.0. For the same compound, the “CYPIR herbicidal effect rating” value (Cyperus iria; [9]) was 9.0, the “CYPSE herbicidal effect rating” value [2, 5] was 2.0 and the “CYPSE herbicidal effect rating” value [2, 6] was 2.0. For the same compound, the “CYPSE herbicidal effect rating” value [2, 7] was 8.0, the “CYPSE herbicidal effect rating” value [2, 8] was 7.0 and the “CYPSE herbicidal effect rating” value [2, 9] was 7.0. For the same compound, the “MOOVA herbicidal effect rating” value [3, 5] was 9.0, the “MOOVA herbicidal effect rating” value [3, 6] was 9.0 and the “MOOVA herbicidal effect rating” value [3, 7] was 9.0. The “MOOVA herbicidal effect rating” value [3, 8] was 9.0, the “MOOVA herbicidal effect rating” value [3, 9] was 9.0 and the “SAGPY herbicidal effect rating” value (Sagittaria pygmaea, L.; [5]) was 8.0. The “SAGPY herbicidal effect rating” value (Sagittaria pygmaea, L.; [6]) was 9.0, the “SAGPY herbicidal effect rating” value (Sagittaria pygmaea, L.; [7]) was 9.0 and the “SAGPY herbicidal effect rating” value (Sagittaria pygmaea, L.; [8]) was 9.0. The “SAGPY herbicidal effect rating” value (Sagittaria pygmaea, L.; [9]) was 9.0, the “ORYSAT herbicidal effect rating” value ([4]; Rate 0.0320 kg/ha) was 4.0 and the “ORYSAT herbicidal effect rating” value ([4]; Rate 0.0620 kg/ha) was 5.0. The “ORYSAT herbicidal effect rating” value ([4]; Rate 0.1250 kg/ha) was 6.0, the “ORYSAT herbicidal effect rating” value ([4]; Rate 0.2500 kg/ha) was 7.0 and the “ORYSAT herbicidal effect rating” value ([4]; Rate 0.5000 kg/ha) was 9.0.
With `C#CCOC(=O)COc1cccc(-c2nsc3ccc(-n4c(=O)cc(C(F)(F)F)n(C)c4=O)cc23)c1` [Example 326, Acetic acid, {m-{5-[3,6-dihydro-3-methyl-2,6-dioxo-4-(trifluoromethyl)-1(2H)-pyrimidinyl]-1,2-benzisothiazol-3-yl}phenoxy}-, 2-propynyl ester] the “herbicidal effect rating, ECHORC” value [1, 10] was 5.5, the “herbicidal effect rating, ECHORC” value [1, 11] was 8.5 and the “herbicidal effect rating, ECHORC” value [1, 12] was 9.0. For the same compound, the “herbicidal effect rating, ECHORC” value [1, 13] was 9.0, the “herbicidal effect rating, CYPIR” value (Cyperus iria; [10]) was 6.0 and the “herbicidal effect rating, CYPIR” value (Cyperus iria; [11]) was 7.0. The “herbicidal effect rating, CYPIR” value (Cyperus iria; [12]) was 7.0, the “herbicidal effect rating, CYPIR” value (Cyperus iria; [13]) was 9.0 and the “herbicidal effect rating, CYPSE” value [2, 10] was 4.0. The “herbicidal effect rating, CYPSE” value [2, 11] was 4.5, the “herbicidal effect rating, CYPSE” value [2, 12] was 4.5 and the “herbicidal effect rating, CYPSE” value [2, 13] was 7.5. For the same compound, the “herbicidal effect rating, MOOVA” value [3, 10] was 9.0, the “herbicidal effect rating, MOOVA” value [3, 11] was 9.0 and the “herbicidal effect rating, MOOVA” value [3, 12] was 9.0. For the same compound, the “herbicidal effect rating, MOOVA” value [3, 13] was 9.0, the “herbicidal effect rating, SAGPY” value (Sagittaria pygmaea, L.; [10]) was 0.0 and the “herbicidal effect rating, SAGPY” value (Sagittaria pygmaea, L.; [11]) was 1.0. For the same compound, the “herbicidal effect rating, SAGPY” value (Sagittaria pygmaea, L.; [12]) was 5.5, the “herbicidal effect rating, SAGPY” value (Sagittaria pygmaea, L.; [13]) was 9.0 and the “herbicidal effect rating ORYSAT” value ([4]; Rate 0.0320 kg/ha) was 5.5. For the same compound, the “herbicidal effect rating ORYSAT” value ([4]; Rate 0.0620 kg/ha) was 5.5, the “herbicidal effect rating ORYSAT” value ([4]; Rate 0.1250 kg/ha) was 5.5 and the “herbicidal effect rating ORYSAT” value ([4]; Rate 0.2500 kg/ha) was 5.5.
With `CCCCCCCOC(=O)c1nsc2ccc(-n3c(=O)cc(C(F)(F)F)n(C)c3=O)cc12` [Example 388, 1,2-Benzisothiazole-3-carboxylic acid, 5-[3,6-dihydro-3-methyl-2,6-dioxo-4-(trifluoromethyl)-1(2H)-pyrimidinyl]-, heptyl ester] the “herbicidal effect rating, ECHORC” value [1, 5] was 0.0, the “herbicidal effect rating, ECHORC” value [1, 6] was 2.0 and the “herbicidal effect rating, ECHORC” value [1, 7] was 5.0. The “herbicidal effect rating, ECHORC” value [1, 8] was 6.0, the “herbicidal effect rating, CYPIR” value (Cyperus iria; [5]) was 4.0 and the “herbicidal effect rating, CYPIR” value (Cyperus iria; [6]) was 7.0. For the same compound, the “herbicidal effect rating, CYPIR” value (Cyperus iria; [7]) was 7.0, the “herbicidal effect rating, CYPIR” value (Cyperus iria; [8]) was 9.0 and the “herbicidal effect rating, CYPSE” value [2, 5] was 6.0. For the same compound, the “herbicidal effect rating, CYPSE” value [2, 8] was 6.0, the “herbicidal effect rating, MOOVA” value [3, 5] was 9.0 and the “herbicidal effect rating, MOOVA” value [3, 6] was 9.0. For the same compound, the “herbicidal effect rating, MOOVA” value [3, 7] was 9.0, the “herbicidal effect rating, MOOVA” value [3, 8] was 9.0 and the “herbicidal effect rating, SAGPY” value (Sagittaria pygmaea, L.; [5]) was 3.0. For the same compound, the “herbicidal effect rating, SAGPY” value (Sagittaria pygmaea, L.; [6]) was 4.0, the “herbicidal effect rating, SAGPY” value (Sagittaria pygmaea, L.; [7]) was 4.0 and the “herbicidal effect rating, SAGPY” value (Sagittaria pygmaea, L.; [8]) was 7.0. The “herbicidal effect rating ORYSAT” value ([4]; Rate 0.0320 kg/ha) was 3.0, the “herbicidal effect rating ORYSAT” value ([4]; Rate 0.0620 kg/ha) was 4.0 and the “herbicidal effect rating ORYSAT” value ([4]; Rate 0.1250 kg/ha) was 4.0. The “herbicidal effect rating ORYSAT” value ([4]; Rate 0.2500 kg/ha) was 6.0.
With `Cn1c(C(F)(F)F)cc(=O)n(-c2ccc3snc(C(=O)NS(=O)(=O)c4ccccc4)c3c2)c1=O` [Example 352, 1,2-Benzisothiazole-3-carboxamide, 5-[3,6-dihydro-3-methyl-2,6-dioxo-4-(trifluoromethyl)-1(2H)-pyrimidinyl]-N-(phenylsulfonyl)-] the “herbicidal effect rating, ECHORC” value [1, 5] was 2.5, the “herbicidal effect rating, ECHORC” value [1, 6] was 4.0 and the “herbicidal effect rating, ECHORC” value [1, 7] was 6.5. For the same compound, the “herbicidal effect rating, ECHORC” value [1, 8] was 9.0, the “herbicidal effect rating, CYPIR” value (Cyperus iria; [5]) was 2.0 and the “herbicidal effect rating, CYPIR” value (Cyperus iria; [6]) was 6.5. The “herbicidal effect rating, CYPIR” value (Cyperus iria; [7]) was 7.5, the “herbicidal effect rating, CYPIR” value (Cyperus iria; [8]) was 9.0 and the “herbicidal effect rating, CYPSE” value [2, 5] was 0.0. For the same compound, the “herbicidal effect rating, CYPSE” value [2, 6] was 0.0, the “herbicidal effect rating, CYPSE” value [2, 7] was 1.0 and the “herbicidal effect rating, CYPSE” value [2, 8] was 0.0. For the same compound, the “herbicidal effect rating, MOOVA” value [3, 5] was 6.0, the “herbicidal effect rating, MOOVA” value [3, 6] was 9.0 and the “herbicidal effect rating, MOOVA” value [3, 7] was 9.0. For the same compound, the “herbicidal effect rating, MOOVA” value [3, 8] was 9.0, the “herbicidal effect rating, SAGPY” value (Sagittaria pygmaea, L.; [5]) was 2.5 and the “herbicidal effect rating, SAGPY” value (Sagittaria pygmaea, L.; [6]) was 5.0. For the same compound, the “herbicidal effect rating, SAGPY” value (Sagittaria pygmaea, L.; [7]) was 9.0, the “herbicidal effect rating, SAGPY” value (Sagittaria pygmaea, L.; [8]) was 9.0 and the “herbicidal effect rating ORYSAT” value ([4]; Rate 0.0320 kg/ha) was 0.5. For the same compound, the “herbicidal effect rating ORYSAT” value ([4]; Rate 0.0620 kg/ha) was 1.0, the “herbicidal effect rating ORYSAT” value ([4]; Rate 0.1250 kg/ha) was 2.5 and the “herbicidal effect rating ORYSAT” value ([4]; Rate 0.2500 kg/ha) was 3.0.
